Data taken from patent publication US20140356433A1, “Pharmaceutical Carrier and Drug Structure Using the Same” (priority 2013, published 2014).

Assay: Retention in stomach, 123I label, single-photon emission computed tomography
Type: in vivo
Settings: mice, 24 hours after feeding, 123I labeled, SPECT (FIG. 3)
Description: Then, in order to examine the retention time of the present drug structure in stomach, sample B of embodiment 1 was labeled with radioactive Iodine 123 (^123I) and fed to experimental mice. Single-photon emission computed tomography was respectively conducted at 1st, 4th, and 24th hour after feeding to observe the location of the present drug structure inside the mice's bodies.

Structure (SMILES): CC1(C)S[C@@H]2[C@H](NC(=O)[C@H](N)c3ccc(O)cc3)C(=O)N2[C@H]1C(=O)O [amoxicillin]
- presence in stomach after feeding: had no longer existed in the stomach after 24 hours
